Source: patent US20210323908A1, “PROCESS FOR PRODUCING TCA CYCLE INTERMEDIATE CONJUGATES” (IMBRIA PHARMACEUTICALS, INC., priority 2020, published 2021)

Assays:
Format in all cases: physicochemical
[1] = Decomposition of the product in hot water, observed during work-up; settings: in water at 70-80° C.
Experimental: The reaction mixtures were filtered to remove solvents. The wet cake was charged to a reactor. […] 6 kg of MS001 Silica Thiol was added to the filtrate at about 60-70° C., stirred for 1 hour, and filtered through a pad of fresh Celite.
A total of 20 kg of a compound of Formula (X) was made from 56.6 kg of a compound of Formula (IV), with 98.0% and a 73.5% yield. The yield of the manufacture is consistent to the Lab batch.

[2] = Solubility of the Type A crystal polymorph (stated as a conclusion, no method given); settings: solid crystal polymorph identified as Type A
[3] = Stability of the Type A crystal polymorph (stated as a conclusion, no method given); settings: solid crystal polymorph identified as Type A

stability in water at elevated temperature [1]: could be decomposed in water | solubility of the solid crystal polymorph Type A [2]: soluble | stability of the solid crystal polymorph Type A [3]: highly stable
SMILES: N[C@@H](COC(=O)CCC(=O)O)C(=O)O [Formula (X)]
